# Measured values from article PMC10376059, “New NADPH Oxidase 2 Inhibitors Display Potent Activity against Oxidative Stress by Targeting p22^phox-p47^phox Interactions” (Antioxidants, 2023).
# What was measured:
# [1] = tested on: cardiomyocytes isolated from mdx mice; experiment: NOX2-mediated ROS production (DCF-DA, confocal) in mdx cardiomyocytes; assay type: cell-based, mouse; conditions: 20 µM
# Source text: Cardiomyocytes were isolated from mdx mice (C57BL/10ScSn-DMDmdx/J, stock number 001801M, Jackson Laboratories, Bar Harbor, […], USA). Male mdx mice of 19 months of age were used, which were housed in individual cages with water and food ad libitum. All the procedures were adjusted to the “Guide for the Care and Use of Laboratory Animals” (1996) of the National Institute of Health and were approved by the Institutional Committee for Animal Care and Use of the Universidad de Talca. Mice were pre-medicated with heparin i.p. (200U.) and then sacrificed by cervical dislocation. The heart was rapidly removed, cannulated through the aorta, and retrogradely perfused in a steady flow (2 mL/min) at 37 °C. The hearts were initially perfused for 10 min with a Ca^2+-free bicarbonate buffer solution containing (in mM) 120 NaCl; 5.4 KCl; 1.2 MgSO4; 1.2 NaH2PO4; 5.6 glucose; 20 NaHCO3; 10 BDM, and 5 taurine, bubbled with a 95% O2–5% CO2 mixture. Enzyme digestion was performed with collagenase type II (1 mg/mL; Worthington Biochemical Corp., Lakewood, NJ, USA) and protease type XIV (0.1 mg/mL; Sigma-Aldrich) as previously reported. Isolated cardiomyocytes were transferred to 1.5 mL Eppendorf tubes and preincubated with the heteroaryl acrylonitrile compounds.
# Cardiomyocytes isolated from mdx mice were transferred to Eppendorf tubes to be incubated with 1 μM of the indole heteroaryl-acrylonitrile derivatives for 30 min, protected from light, at room temperature. VAS2870 (20 μM) was used as a positive control for NOX2 inhibition. 2′,7′-dichlorofluorescein diacetate (DCF-DA) (10 μM) was then added and incubated for 15 min. Subsequently, it was allowed to sediment by gravity to remove the supernatant, and the pellets obtained were in a phosphate saline solution (PBS). 200 μL of the cell suspension were placed on pre-treated polylysine slides (Thermo Fischer, USA) and fixed with 2% paraformaldehyde (Sigma-Aldrich®, St. Louis, MO, USA) for 10 min at 4 °C. […] From the acquired images, the fluorescence intensity was quantified at 495 nm, and the data were reported as fluorescence intensity per pixel.
# p47^phox = molecular target: T1, p47^phox (Homo sapiens, UniProt P14598); experiment: p47phox translocation from cytosol to membrane (Western blot) in PMA-stimulated HL-60 differentiated cells; assay type: cell-based; conditions: PMA 0.8 µM, 20 µM
# T1 construct: we evaluated p47^phox translocation from the cytosol to the membrane in HL-60 differentiated cells; endogenous in cells; host or cells: neutrophil-differentiated HL-60 cells treated with PMA; membrane and cytosolic fractions obtained by cryo-fracture
# T1 sequence (P14598 1-390): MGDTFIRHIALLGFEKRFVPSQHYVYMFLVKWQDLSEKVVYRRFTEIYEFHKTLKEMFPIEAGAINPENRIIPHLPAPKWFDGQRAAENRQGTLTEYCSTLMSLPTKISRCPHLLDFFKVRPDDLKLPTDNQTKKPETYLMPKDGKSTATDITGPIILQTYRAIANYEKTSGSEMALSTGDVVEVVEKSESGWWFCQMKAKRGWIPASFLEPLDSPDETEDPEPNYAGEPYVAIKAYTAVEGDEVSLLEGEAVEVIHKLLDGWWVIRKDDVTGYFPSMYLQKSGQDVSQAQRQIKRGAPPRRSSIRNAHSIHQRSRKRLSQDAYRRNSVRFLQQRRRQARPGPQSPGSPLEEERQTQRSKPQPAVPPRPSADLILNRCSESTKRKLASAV
# Description: Neutrophil-differentiated HL-60 cells (2 × 10^6 cells/mL) were incubated at 37 °C in a humid atmosphere with 5% CO2 and 50 μM of the different acrylonitrile compounds, then PMA 0.8 μM was added and incubated for 1 h to induce the activation of the enzyme NADPH oxidase. As a positive inhibition control, VAS2870 (20 μM) was used. Another two controls were performed: one with cells activated by PMA in the presence of DMSO, and the other (NA, non-activated) with cells in the absence of PMA and the acrylonitrile compounds. In 15 mL conical tubes, 5 mL of cell suspension from each treatment and control condition was transferred at 2 × 10^6 cells/mL and centrifuged at 1000 rpm at 4 °C for 10 min. The supernatant was then discarded, and each pellet was re-suspended in 2 mL of a 4% PBS solution with 2 mM EGTA and 0.25 mM PMSF frozen at −80 °C for 10 min. Then each pellet was thawed on ice. After this, the cell suspension was passed through a glass tissue homogenizer (Deltalab®, I.C.T, S.L, La Rioja, Spain) 20 times. The freezing-thawing and homogenization processes were repeated three times. Finally, the homogenate was centrifuged at 15,000 rpm at 4 °C for 15 min. The supernatant (cytosolic fraction) was removed from the pellet (membranes were prepared). A fraction was removed for the determination of total proteins, and the remainder was stored at −80 °C for further analysis. […]
# isolated rat hearts = experiment: Ischemia-reperfusion in isolated rat heart (Langendorff); conditions: 100 µM, TTC staining
Compound,"NOX2-derived ROS, DCF (in words) [1]",translocation of p47phox to the membrane (in words) (p47^phox),infarcted area (in words) (isolated rat hearts)
"c1ccc(Cn2nnc3c(Sc4nc5ccccc5o4)ncnc32)cc1 [VAS2870, 7-(1,3-Benzoxazol-2-ylsulfanyl)-3-benzyl-3H-[1,2,3]triazolo [4,5-d]pyrimidine, reference compound]",reduced,significantly reduced the translocation of p47^phox to the membrane,–
COc1cc(C(C)=O)ccc1O [apocynin],–,–,reduced the infarcted area
